# Assay results reported in patent US7452887B2, “Quinoline- and isoquinoline-based compounds exhibiting ATP-utilizing enzyme inhibitory activity, and compositions, and uses thereof” (Amphora Discovery Corporation, priority 2004, dated 2008).
# Legend:
# Test in all cases: HTS ATP-utilizing enzyme assay, off-chip mobility-shift (Caliper HTS 250)
# Format in all cases: biochemical
# Details in all cases: test compound 10 μM, kinase listed = active (greater than six-sigma from the mean activity of inactive compounds)
# [1] = target: T1, NEK2 (Homo sapiens, UniProt P51955)
# T1 sequence (P51955 1-445): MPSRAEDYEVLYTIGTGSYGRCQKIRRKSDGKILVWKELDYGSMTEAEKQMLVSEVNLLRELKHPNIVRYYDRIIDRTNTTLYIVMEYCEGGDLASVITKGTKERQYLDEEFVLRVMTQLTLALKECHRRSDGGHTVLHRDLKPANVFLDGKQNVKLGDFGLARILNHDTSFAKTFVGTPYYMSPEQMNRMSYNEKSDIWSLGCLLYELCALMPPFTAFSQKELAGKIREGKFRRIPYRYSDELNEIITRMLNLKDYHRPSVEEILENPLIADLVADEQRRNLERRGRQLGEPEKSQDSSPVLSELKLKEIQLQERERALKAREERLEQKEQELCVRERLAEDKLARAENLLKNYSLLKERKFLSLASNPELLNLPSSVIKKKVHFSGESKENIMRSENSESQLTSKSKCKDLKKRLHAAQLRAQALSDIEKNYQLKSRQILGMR
# From the text: (§1) The following procedures describe the reagent and plate preparation for a HTS of an ATP-utilizing enzyme, such as a protein kinase, run in an off-chip mobility-shift assay format. The following provides an HTS protocol for running a protein kinase HTS screen on a Caliper HTS 250 microfluidics system. The following parameters are dependent on the protein kinase used and can be determined by one skilled in the art as part of a typical assay development process. For example, the peptide substrate used can be identified from the current literature, by screening a peptide library of potential protein kinase substrates, or by other applicable means accepted in the field.
# (§2) The following table provides typical screen assay parameters appropriate for a Caliper HTS 250 microfluidics system.
# (§3) The reagents and buffers listed in the following table are generally applicable for developing and running an HTS screen on a human protein kinase using the Caliper HTS 250 system.
# (§4) The following reagents were prepared using the previously described buffers.
# (§5) A 2× Master Buffer solution was prepared by combining 200 mL of 1 M HEPES, pH 7.5, 2 mL of 10% Triton X-100, 20 mL of 10% BSA, and 778 mL of H2O.
# (§6) A 2.5× Substrate Buffer solution was prepared by combining 177.408 mL of 2× Master Buffer, 0.887 mL of 1 mM peptide-X, and 176.521 mL of H2O.
# (§7) A 1.55× Termination Buffer solution was prepared by combining 762.05 mL of 2× Master Buffer, 95.1 mL of 0.5 M EDTA, and 666.94 mL of H2O.
# (§8) A TCB Buffer solution was prepared by combining 125 mL of 2× Master Buffer, 10 mL of 0.5 M EDTA, 6.25 mL of 4% coating reagent, 1.01 mL of 100% DMSO, and 107.74 mL H2O.
# (§9) A Dye Trough solution was prepared by combining 0.5 μL of peptide-X, and 2,999.5 μL of IX Master Buffer.
# (§10) A 1.06× Assay Buffer solution was prepared by combining 205.15 mL of 2× Master Buffer, and 181.92 mL of H2O.
# (§11) Assays to determine the kinase inhibitory activity of compounds of the present disclosure were performed using a Caliper HTS 250 microfluidics device, Greiner U-bottom assay plates, a Multidrop for transfer of reagents, and Biomek FX (AMNCBM03) software. Initially, 2.4 μL of a 1 mM solution of a test compound in 100% DMSO was added to a well of the Greiner U-bottom plate. A single Greiner U-bottom plate having 24×16 wells could include multiple test compounds. Next, […] of 1.06× Assay Buffer was added to each well of the assay plate. Using the Biomek FX, 10 μL of 0.5 M EDTA was added by the span-8 to wells, indicated as 100% Control and 2.4 μL of 100% DMSO was added by the span-8 to wells, indicated as 0% Control. Using the Multidrop, 10 μL of 2.5× Enzyme Buffer, followed by 10 μL of 2.5× Substrate Buffer was added to each well of the assay plate. The total reaction volume in each well was 25 μL, and the concentration of the test compound was 10 μM. The assay plate was incubated for 2.5 hrs at 20° C. to 22° C. After the incubation period, using the Multidrop, 45 μL of 1.55× Termination Buffer was added to each well of the assay plate to stop the reaction. The inhibition of the ATP-utilizing enzyme, such as a particular protein kinase, was determined by measuring the ratio of the peptide substrate to phosphorylated product for each well of the assay plate using the Caliper HTS 250 system.
# (§12) The use of six-sigma statistical limits represents a conservative method for declaring potential hits among targets. The six-sigma activity, as well as the mean population activity, can be different for each target enzyme. This method has an expected false positive rate, from an in-control measurement process, of one in one million.
# [2] = target: T2, PRAK (Homo sapiens, UniProt Q8IW41)
# T2 sequence (Q8IW41 1-473): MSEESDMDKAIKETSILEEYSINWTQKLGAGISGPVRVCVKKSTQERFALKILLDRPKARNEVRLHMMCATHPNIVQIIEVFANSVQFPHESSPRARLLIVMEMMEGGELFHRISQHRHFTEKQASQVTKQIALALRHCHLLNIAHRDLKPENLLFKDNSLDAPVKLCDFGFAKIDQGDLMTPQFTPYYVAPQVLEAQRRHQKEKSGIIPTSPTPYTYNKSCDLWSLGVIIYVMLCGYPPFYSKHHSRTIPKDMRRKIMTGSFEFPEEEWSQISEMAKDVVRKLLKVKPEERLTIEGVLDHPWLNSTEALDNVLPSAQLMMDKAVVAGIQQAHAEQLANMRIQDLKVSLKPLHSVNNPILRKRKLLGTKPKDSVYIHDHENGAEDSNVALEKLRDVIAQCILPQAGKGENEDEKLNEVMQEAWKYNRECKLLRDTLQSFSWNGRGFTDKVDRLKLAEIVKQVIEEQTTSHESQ
# From the text: as §1, §2, §3, §4, §5, §6, §7, §8, §9, §10, §11, §12
# [3] = target: MAPKAPK2 (Homo sapiens, UniProt P49137)
# Outline: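 Phosphorylation of a peptide substrate was quantified by Caliper mobility-shift separation of substrate and product after 2.5 h at 20-22 °C, with compounds tested at 10 μM. Inhibition was normalized to EDTA-quenched (100%) and DMSO (0%) controls; six-sigma thresholds flagged actives.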
# [4] = target: C-TAK1 (Homo sapiens, UniProt P27448)
# From the text: as §1, §2, §3, §4, §5, §6, §7, §8, §9, §10, §11, §12
# MAPKAPK2, sequence (P49137 whole entry): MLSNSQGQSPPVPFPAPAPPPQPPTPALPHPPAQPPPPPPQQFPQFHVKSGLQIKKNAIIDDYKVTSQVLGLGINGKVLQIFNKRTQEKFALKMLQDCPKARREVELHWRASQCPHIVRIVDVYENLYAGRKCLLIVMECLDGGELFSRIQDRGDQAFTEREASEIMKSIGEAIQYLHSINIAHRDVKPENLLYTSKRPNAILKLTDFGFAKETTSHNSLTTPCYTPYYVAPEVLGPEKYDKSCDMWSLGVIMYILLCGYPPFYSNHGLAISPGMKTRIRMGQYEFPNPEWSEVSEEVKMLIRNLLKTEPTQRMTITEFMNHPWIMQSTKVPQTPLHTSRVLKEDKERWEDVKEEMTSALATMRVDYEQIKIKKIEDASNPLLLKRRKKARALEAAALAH
# C-TAK1, sequence (P27448 whole entry): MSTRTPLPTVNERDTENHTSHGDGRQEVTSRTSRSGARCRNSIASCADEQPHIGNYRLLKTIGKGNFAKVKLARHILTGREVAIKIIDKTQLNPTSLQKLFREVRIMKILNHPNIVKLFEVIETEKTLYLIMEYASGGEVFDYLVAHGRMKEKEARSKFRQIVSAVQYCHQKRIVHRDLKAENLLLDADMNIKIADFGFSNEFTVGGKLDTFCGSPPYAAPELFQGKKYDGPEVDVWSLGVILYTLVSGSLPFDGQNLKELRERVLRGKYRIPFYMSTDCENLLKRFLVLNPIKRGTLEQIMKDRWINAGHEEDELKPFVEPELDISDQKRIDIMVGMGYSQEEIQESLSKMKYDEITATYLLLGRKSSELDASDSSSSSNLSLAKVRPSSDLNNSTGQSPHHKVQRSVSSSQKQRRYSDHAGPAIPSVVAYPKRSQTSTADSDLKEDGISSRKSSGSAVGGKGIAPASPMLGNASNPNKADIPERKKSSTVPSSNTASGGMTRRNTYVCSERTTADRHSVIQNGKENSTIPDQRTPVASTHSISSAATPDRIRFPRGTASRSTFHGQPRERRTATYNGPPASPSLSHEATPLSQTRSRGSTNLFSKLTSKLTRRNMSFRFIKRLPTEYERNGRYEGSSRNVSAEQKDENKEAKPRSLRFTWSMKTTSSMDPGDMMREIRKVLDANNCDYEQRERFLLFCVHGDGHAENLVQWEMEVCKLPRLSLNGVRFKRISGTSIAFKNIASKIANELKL
Structure (SMILES),Activity [1],Activity [2],Activity [3],Activity [4]
"CN1CCN(c2ccc(Nc3ccnc4ccc(-c5ccc(F)cc5F)cc34)cc2)CC1 [6-(2,4-difluorophenyl)-N-(4-(4-methylpiperazin-1-yl)phenyl)quinolin-4-amine]",NEK2,PRAK,MAPKAPK2,–
CN1CCN(c2ccc(Nc3ccnc4ccc(-c5cccc(Cl)c5)cc34)cc2)CC1 [6-(3-chlorophenyl)-N-(4-(4-methylpiperazin-1-yl)phenyl)quinolin-4-amine],NEK2,PRAK,MAPKAPK2,–
"Cc1cccc(-c2ccc3nccc(Nc4ccc(N5CCN(C)CC5)cc4)c3c2)c1C [6-(2,3-dimethylphenyl)-N-(4-(4-methylpiperazin-1-yl)phenyl)quinolin-4-amine]",NEK2,PRAK,MAPKAPK2,–
"CN1CCN(c2ccc(Nc3ccnc4ccc(-c5cc(F)ccc5F)cc34)cc2)CC1 [6-(2,5-difluorophenyl)-N-(4-(4-methylpiperazin-1-yl)phenyl)quinolin-4-amine]",NEK2,PRAK,MAPKAPK2,–
CC(C)c1ccc(-c2ccc3nccc(Nc4ccc(N5CCN(C)CC5)cc4)c3c2)cc1 [6-(4-isopropylphenyl)-N-(4-(4-methylpiperazin-1-yl)phenyl)quinolin-4-amine],NEK2,PRAK,MAPKAPK2,–
CN1CCN(c2ccc(Nc3ccnc4ccc(-c5ccc(C#N)cc5)cc34)cc2)CC1 [4-(4-(4-(4-methylpiperazin-1-yl)phenylamino)quinolin-6-yl)benzonitrile],NEK2,PRAK,MAPKAPK2,–
CN1CCN(c2ccc(Nc3ccnc4ccc(-c5ccc(C6CCCCC6)cc5)cc34)cc2)CC1 [6-(4-cyclohexylphenyl)-N-(4-(4-methylpiperazin-1-yl)phenyl)quinolin-4-amine],–,–,MAPKAPK2,C-TAK1
Cc1cccc(-c2ccc3nccc(Nc4ccc(N5CCN(C)CC5)cc4)c3c2)c1 [N-(4-(4-methylpiperazin-1-yl)phenyl)-6-m-tolylquinolin-4-amine],NEK2,PRAK,MAPKAPK2,–
"Cc1ccc(-c2ccc3nccc(Nc4ccc(N5CCN(C)CC5)cc4)c3c2)cc1C [6-(3,4-dimethylphenyl)-N-(4-(4-methylpiperazin-1-yl)phenyl)quinolin-4-amine]",NEK2,PRAK,MAPKAPK2,–
CCc1ccccc1-c1ccc2nccc(Nc3ccc(N4CCN(C)CC4)cc3)c2c1 [6-(2-ethylphenyl)-N-(4-(4-methylpiperazin-1-yl)phenyl)quinolin-4-amine],NEK2,PRAK,MAPKAPK2,–
"CN1CCN(c2ccc(Nc3ccnc4ccc(-c5ccc(Cl)cc5Cl)cc34)cc2)CC1 [6-(2,4-dichlorophenyl)-N-(4-(4-methylpiperazin-1-yl)phenyl)quinolin-4-amine]",NEK2,PRAK,MAPKAPK2,–
CCCCCc1ccc(-c2ccc3nccc(Nc4ccc(N5CCN(C)CC5)cc4)c3c2)cc1 [N-(4-(4-methylpiperazin-1-yl)phenyl)-6-(4-pentylphenyl)quinolin-4-amine],–,PRAK,–,C-TAK1
Cc1ccc(-c2ccc3nccc(Nc4ccc(N5CCN(C)CC5)cc4)c3c2)cc1 [N-(4-(4-methylpiperazin-1-yl)phenyl)-6-p-tolylquinolin-4-amine],NEK2,PRAK,MAPKAPK2,–
CCN1CCN(c2ccc(Nc3ccnc4ccc(-c5ccc(C#N)cc5)cc34)cc2)CC1 [4-(4-(4-(4-ethylpiperazin-1-yl)phenylamino)quinolin-6-yl)benzonitrile],–,PRAK,MAPKAPK2,–
N#Cc1ccc(-c2ccc3nccc(Nc4ccc(N5CCNCC5)cc4)c3c2)cc1 [4-(4-(4-(piperazin-1-yl)phenylamino)quinolin-6-yl)benzonitrile],–,PRAK,MAPKAPK2,–
CN1CCN(c2ccc(Nc3ccnc4ccc(-c5ccc(Cl)cc5)cc34)cc2)CC1 [6-(4-chlorophenyl)-N-(4-(4-methylpiperazin-1-yl)phenyl)quinolin-4-amine],–,PRAK,MAPKAPK2,–
CN1CCN(c2ccc(Nc3ccnc4ccc(-c5ccc(CO)cc5)cc34)cc2)CC1 [(4-(4-(4-(4-methylpiperazin-1-yl)phenylamino)quinolin-6-yl)phenyl)methanol],–,PRAK,MAPKAPK2,–
"COc1ccc(-c2ccc3nccc(Nc4ccc(N5CCN(C)CC5)cc4)c3c2)c(OC)c1 [6-(2,4-dimethoxyphenyl)-N-(4-(4-methylpiperazin-1-yl)phenyl)quinolin-4-amine]",NEK2,PRAK,MAPKAPK2,–
CC(=O)c1ccc(-c2ccc3nccc(Nc4ccc(N5CCN(C)CC5)cc4)c3c2)s1 [1-(5-(4-(4-(4-methylpiperazin-1-yl)phenylamino)quinolin-6-yl)thiophen-2-yl)ethanone],–,PRAK,MAPKAPK2,–
CN1CCN(c2ccc(Nc3ccnc4ccc(-c5ccc(OC(F)(F)F)cc5)cc34)cc2)CC1 [N-(4-(4-methylpiperazin-1-yl)phenyl)-6-(4-(trifluoromethoxy)phenyl)quinolin-4-amine],–,PRAK,MAPKAPK2,–
COc1ccccc1-c1ccc2nccc(Nc3ccc(N4CCN(C)CC4)cc3)c2c1 [6-(2-methoxyphenyl)-N-(4-(4-methylpiperazin-1-yl)phenyl)quinolin-4-amine],NEK2,PRAK,MAPKAPK2,–
